# Measurements reported in patent publication US20160022751A1, “NOVEL COMPOSITION FOR TREATING ALZHEIMER'S DISEASE AND IMPROVING COGNITIVE FUNCTION OF ALZHEIMER'S PATIENTS” (GANGNEUNG-WONJU NATIONAL UNIVERSITY INDUSTRY ACADEMY …, priority 2014, published 2016).
# Key:
# VAChT = VAChT mRNA expression in N2a cells (RT-PCR); type: cell-based, mouse; details: for expression of VAChT mRNA: single ginsenoside (FIG. 7B); for expression of VAChT, dose dependence: various concentrations (FIG. 7D)
# Excerpt: (§1) The present inventor reported that ChAT overexpressing human neural stem cells restored cognition with an increase of ACh levels in rat model (Park et al., Exp. Neurol., 234: 521-526, 2012). This implies that the increase of the ChAT level in cholinergic neurons plays a critical role in cognition enhancement and thus the cholinergic gene locus “VAChT/ChAT” can be a putative target for therapeutic approaches on AD. Thus the present inventor prepared transfected Neuro-2a (N2a) cells that over-express the human ChAT and APP (designated as “N2a.hChAT” and “N2a.hAPPswe”, respectively, FIG. 6) and the N2a.hChAT and N2a.hAPPswe cells were treated with the faction groups 1 to 5 isolated in the Example 3 at a centration of 50 μg/ml. Neuro-2a mouse neuroblastoma cells (Korean Cell Line Bank, Korea) were grown in DMEM supplemented with 10% fetal bovine serum (FBS), 100 U/m penicillin, and 100 μg/ml streptomycin (Invitrogen, USA) under 5% CO2 at 37° C. in tissue culture flasks. For all experiments, cells were grown to greater than 90% confluency and subjected to no more than 20 cell passages. The medium was changed every 2-3 days. Subconfluent cells were harvested and seeded at a density of 5×10^5 cells or 5×10^6 cells in poly-L-lysine-coated 35 mm or 60 mm culture plates. To recover the cells that are not completely saturated for analysis, poly-L-lysine coated 35 mm or 60 mm culture was seeded at a concentration of 5×10^5 or 5×10^6 cells on the plates. The extent of expression of hChAT and APP in the N2a.hChAT and N2a.hAAPswe cells treated with the faction groups 1 to 5 was quantified with RT-PCR using primers described in the below Table 2. At this time, beta-actin was used as an internal control.
# (§2) Specifically, total RNA extracts from N2a cells were prepared using the Trizol method (Invitrogen, USA) and cDNA was synthesized from RNA by reverse transcription of 1 μg of total RNA using a reverse transcription system (Improm-II, Promega, USA) and oligo dT primers in a total volume of 20 μL. PCR amplification was performed using the primers described in Table 2 (Bioneer, Korea). Quantitative real-time PCR reactions were run on a Rotor-Gene 6000 (Corbett Research, Australia) using SensiMix™ SYBR Hi-ROX Kit (Bioline, U.K.) in 20 μL reaction mixtures. Each real-time-PCR master mix contained 10 μL 2× enzyme master mix, 7.0 μL RNase free water, 1 μL of each primer (10 pM each), and 1 μL diluted template. The PCR was performed with an initial pre-incubation step for 15 min at 95° C., followed by 45 cycles of 95° C. for 15 s, annealing at 52° C. for 15 s, and extension at 72° C. for 10 s. Melting curve analysis was used to confirm formation of the expected PCR product, and products from all assays were additionally tested with 1.2% agarose gel electrophoresis to confirm the correct lengths. An inter-run calibrator was used, and a standard curve was created for each gene to obtain PCR efficiencies. Relative sample expression levels were calculated using Rotor-Gene 6000 Series Software 1.7, and were expressed relative to β-actin and corrected for between-run variability. Data for the experimental samples were expressed as a fold unit the internal control gene.
# (§3) In order to examine whether five ginsenosides affect the expression of ChAT related to the synthesis of acetylcholine and VAChT controlling extracellular secretion of acetylcholine, the present inventor analyzed the expression level of ChAT and VAChT after treating the five ginsenosides to N2a […] cells, respectively.
# NGFR (p75) = NGFR (p75) mRNA expression in N2a cells (quantitative RT-PCR); type: cell-based, mouse; details: N2a cells (FIG. 13)
# Excerpt: Since NGF-Trk signal pathway upregulates ChAT and VAChT, it is important to know whether ginsenosides Rd and Re regulate Trk activity directly or at least indirectly. Therefore, the inventor investigated whether the expression of ChAT and VAChT was blocked by treating K252a, an inhibitor against protein kinase C (PKC) and Trk together with ginsenoside Rd or Re, in order to determine more closely whether the expression of cholinergic surface markers and the differentiation of neurons by the treatment of ginsenosides Rd and Re are caused whereby they act NGF-TrkA pathway directly. Particularly, N2a cells were treated with or without K252a (50 nM) in the presence of NGF (100 ng/mL), Re (5 μg/mL) or Rd (5 μg/mL) for 48 h. Total RNA and protein lysates were isolated as described in the Example 4-1 (FIG. 12). […] In addition, the present inventor performed quantitative RT-PCR in order to verify whether the treatment of ginsenosides Rd and Re affect the expression of NGF and NGFR in N2a cells.
# [1] = HPLC analysis of ginsenosides transported into the brain after oral administration; type: in vivo, BALB/c mice; details: mice, oral mixture of Rb1, Re, Rd, Rg1, Rg3 10 mg/kg each, brain taken after six hours, HPLC (FIG. 22)
# Method: Thus, the present inventor performed an HPLC analysis on brain tissue extract obtained from experimental animals administrated with mixture of five ginsenosides (Rb1, Rd, Re, Rg1 and Rg3) which are contained in RgC, in order to investigate whether RgC or ginsenosides Rd, Re and Rg3 can pass through the BBB. For the HPLC analysis of ginsenosides transported into the brain, a mixture of Rb1, Re, Rd, Rg1, and Rg3 (10 mg/kg each) was administered to ten-week-old male BALB/c mice (Central Lab. Animals, Korea). Brain tissues were isolated six hours after the oral administration of the ginsenosides after the complete perfusion with 0.9% saline solution, mechanically disrupted using a TissueLyser (Qiagen, Crawley, U.K.), and centrifuged for 10 min at 13500 rpm. The supernatant (1 mL) was then mixed with n-butanol (0.4 mL) and the butanol layer was completely evaporated and dried for HPLC analysis. The chromatography was performed by the Agilent 1100 series HPLC system (Agilent Technologies, USA) equipped with a vacuum degasser, quaternary pump, and ultraviolet (UV) detector. Chromatographic separation was performed on a Zorbax SB-Aq C18 column (4.6150 mm, 5 μm) and a mixture of solvent A (water) and solvent B (acetonitrile) flowed at a rate of 1 mL/min. The gradient elution program was initiated with 79% solvent A and 21% solvent B, 0-10 min (21-22% B), 10-11 min (22-23% B), 11-29 min (23-24% B), 29-34 min (24-30% B), 34-44 min (30-32% B), 44-49 min (32-50% B), 49-64 min (50-65% B), 64-78 min (65-100% B), and equilibrated with the initial gradient program (21% B) for 10 min prior to the next injection. The column temperature was set at 35° C., the volume of the sample injection was 10 μL, and detection wavelength was set at 203 nm. The animal experiments were approved by the Gangneung-Wonju National University Animal Care and Use Committee (Approval Number: GWNU-2013-23), and all procedures were conducted in accordance with the Guide for Care and Use of Laboratory Animals published by the National Institute of Health.
# ChAT = ChAT mRNA expression in N2a cells (RT-PCR); type: cell-based, mouse; details: for expression of ChAT mRNA: single ginsenoside (FIG. 7A); for expression of ChAT, dose dependence: various concentrations (FIG. 7C)
# Excerpt: as §1, §2, §3
SMILES,expression of VAChT mRNA (VAChT),"expression of VAChT, dose dependence (VAChT)",NGFR (p75) mRNA level (NGFR (p75)),penetration into the brain (passage through BBB) [1],expression of ChAT mRNA (ChAT),"expression of ChAT, dose dependence (ChAT)"
CC(C)=CCC[C@](C)(O[C@@H]1O[C@H](CO)[C@@H](O)[C@H](O)[C@H]1O)[C@H]1CC[C@]2(C)[C@@H]1[C@H](O)C[C@@H]1[C@@]3(C)CC[C@H](O)C(C)(C)[C@@H]3[C@@H](O[C@@H]3O[C@H](CO)[C@@H](O)[C@H](O)[C@H]3O[C@@H]3O[C@@H](C)[C@H](O)[C@@H](O)[C@H]3O)C[C@]12C [ginsenoside Re],significantly increased,increased expression of ChAT and VAChT in a dose-dependent manner,significantly increased,penetrated into the brain,significantly increased,increased expression of ChAT and VAChT in a dose-dependent manner
CC(C)=CCC[C@](C)(O[C@@H]1O[C@H](CO)[C@@H](O)[C@H](O)[C@H]1O)[C@H]1CC[C@]2(C)[C@@H]1[C@H](O)C[C@@H]1[C@@]3(C)CC[C@H](O[C@@H]4O[C@H](CO)[C@@H](O)[C@H](O)[C@H]4O[C@@H]4O[C@H](CO)[C@@H](O)[C@H](O)[C@H]4O)C(C)(C)[C@@H]3CC[C@]12C [ginsenoside Rd],significantly increased,increased expression of ChAT and VAChT in a dose-dependent manner,significantly increased,penetrated into the brain,significantly increased,increased expression of ChAT and VAChT in a dose-dependent manner
CC(C)=CCC[C@](C)(O)[C@H]1CC[C@]2(C)[C@@H]1[C@H](O)C[C@@H]1[C@@]3(C)CC[C@H](O[C@@H]4O[C@H](CO)[C@@H](O)[C@H](O)[C@H]4O[C@@H]4O[C@H](CO)[C@@H](O)[C@H](O)[C@H]4O)C(C)(C)[C@@H]3CC[C@]12C [ginsenoside Rg3],no significant increase,–,–,penetrated into the brain,no significant increase,–
